Assay [1] deals with SW 480. Briefly: Growth inhibition test (MTT) for cytotoxic properties. It counts as cell-based, human. To be noted: Table 1a, glycoconjugates of batracyline. How it is done: (§1) Growth Inhibition Test for Determination of the Cytotoxic Properties of Glycoconjugates of Batracyline and of Quinolone-a
(§2) The human colon cell lines SW 480 and HT 29 (ATCC no. CCL 228 and HBT-38) and the mouse melanoma cell line B 16 F 10 were cultured in Roux dishes in RPMI 1640 medium with addition of 10% FCS. The cultures were then trypsinized and taken up in RPMI plus 10% FCS to a cell count of 50,000 cells/ml. 100 μl of cell suspension/well were introduced into a 96 microwell plate and incubated for 1 day at 37° C. in a CO2 incubating cabinet. A further 100 μl of RPMI medium and 1 μl of dimethyl sulphoxide with the test substances were then added. The growth was checked after day 3 and day 6. 40 μl of MTT solution (3-(4,5-dimethylthiazol-2-yl)-2,5-diphenyltetrazoline bromide) with an initial concentration of 5 mg/ml of H2 O were added to each microwave. The plate was incubated for 5 hours in a CO2 incubating cabinet at 37° C. The medium was then sucked off and 100 μl of i-propanol/well were added. After shaking for 30 minutes with 100 μl of H2 O, the extinction was measured at 540 nm with a Titertek Multiskan MCC/340 (Flow).
(§3) The cytotoxic action of the glycoconjugates of batracyline described is shown in Table 1a as the IC50 value in each case for the SW 480 and HT 29 cell lines.

The test system of assay [2] is HT 29. The assay is described as above. In kind it is cell-based, human. To be noted: Table 1a, glycoconjugates of batracyline. How it is done: as §1, §2, §3

Where a name gives a salt, the structure may show the parent alone. Where only a bound is given, the exact number is not on record here.

As for `CO[C@@H]1[C@@H](O)[C@H](Oc2ccc(NC(=S)N[C@@H](CCCCN)C(=O)N[C@H](C)C(=O)Nc3ccc4c(c3)CN3C(=O)c5ccccc5C3=N4)cc2)O[C@H](CO)[C@@H]1OC` [Example 4.5, N-{N^α -[O-(3,4-Di-O-methyl-β-D-galactopyranosyl)-4-hydroxy-phenylamino-thiocarbonyl]-lysyl-D-alanyl}-batracyline], the IC50 in assay [1] and in assay [2] was 15 µM each time.
On to `COC1C(O)C(C)OC(Oc2ccc(NC(=S)NCCCCC(NC(=S)Nc3ccc(OC4OC(C)C(O)C(OCC(=O)O)C4O)cc3)C(=O)NC(C)C(=O)Nc3ccc4nc5n(c(=O)c4c3)Cc3ccccc3-5)cc2)C1O` [Example 5.1, N-{N^α -[O-(3-O-Carboxymethyl-β-L-fucosyl)-4-hydroxyphenylaminothiocarbonyl] -N^ε -[O-(3-O-methyl-β-L-fucosyl)-4-hydroxyphenylaminothiocarbonyl]-lysyl-D-alanyl}-batracyline], for which the IC50 (in general, the concentration that inhibits the measured activity by half) in assay [1] turned out to be 55 µM; in assay [2], 45 µM.
The like results for `COC1C(C)OC(Oc2ccc(NC(=S)NCCCCC(NC(=S)Nc3ccc(OC4OC(C)C(OC)C(O)C4O)cc3)C(=O)NC(C)C(=O)Nc3ccc4nc5n(c(=O)c4c3)Cc3ccccc3-5)cc2)C(O)C1O` [Example 6.3, N-{N^α,N^ε -Bis-[O-(4-O-methyl-β-L-fucosyl)-4-hydroxy-phenylamino-thiocarbonyl]-lysyl-D-alanyl}-batracyline] were, in that order, 70 µM and 105 µM.
The like results for `O=C(O)CO[C@H]1[C@@H](O)[C@@H](CO)O[C@@H](Oc2ccc(NC(=S)NCCCC[C@H](NC(=S)Nc3ccc(O[C@@H]4O[C@H](CO)[C@H](O)[C@H](OCC(=O)O)[C@H]4O)cc3)C(=O)Nc3ccc4nc5n(c(=O)c4c3)Cc3ccccc3-5)cc2)[C@@H]1O` [Example 6.28, N-{N^α,N^ε -Bis-[O-(3-O-carboxymethyl-β-D-galactopyranosyl)-4-hydroxy-phenylamino-thiocarbonyl]-lysyl}-batracyline, di-sodium salt] were, in that order, 40 µM and 25 µM.
In the case of `NC(=O)COC1C(O)C(CO)OC(Oc2ccc(NC(=S)NCCCCC(NC(=S)Nc3ccc(OC4OC(CO)C(O)C(OCC(N)=O)C4O)cc3)C(=O)Nc3ccc4nc5n(c(=O)c4c3)Cc3ccccc3-5)cc2)C1O` [Example 6.29, N-{N^α,N^ε -Bis-[O-(3-O-carbamoylmethyl-β-D-galactopyranosyl)-4-hydroxy-phenylamino-thiocarbonyl]-lysyl}-batracyline], the IC50 in assay [1] was 95 µM; in assay [2], 130 µM.
The like results for `COC1C(O)C(C)OC(Oc2ccc(NC(=S)Nc3ccc4c(c3)Cn3c-4nc4ccccc4c3=O)cc2)C1O` [Example 7.7, N-[O-(3-O-Methyl-β-L-fucosyl)-4-hydroxy-phenylamino-thiocarbonyl]-batr acyline] were, in that order, 100 µM and over 250 µM.
The like results for “N-{N-(O-(3-O-Methyl-β-L-fucosyl)-4-hydroxy-phenylamino-thiocarbonyl]-D -alanyl}-batracyline [Example 7.1]” were, in that order, 40 µM and 40 µM.
The like results for “N-{N-[O-(3,4-Di-O-methyl-β-D-galactopyranosyl)-4-hydroxy-phenylamino-t hio-carbonyl]-D-alanyl}-batracyline [Example 7.8]” were, in that order, 40 µM and 30 µM.
In the case of “N-{N-[O-(3-O-Carbamoylmethyl-β-D-galactopyranosyl)-4-hydroxy-phenylami no-thiocarbonyl]-D-alanyl}-batracyline [Example 7.12]”, the IC50 in assay [1] and in assay [2] was 10 µM throughout.
For “N-{N-[O-(3-O-Carboxymethyl-β-D-galactopyranosyl)-4-hydroxy-phenylamino -thiocarbonyl]-D-alanyl}-batracyline, sodium salt [Example 7.11]”, the values for the IC50 in assay [1] and in assay [2] were 30 µM and 25 µM, respectively.
The like results for “N-{N-[O-(3-O-Carboxymethyl-β-L-fucosyl)-4-hydroxy-phenylamino-thiocarb onyl]-D-alanyl}-batracyline, sodium salt [Example 7.2]” were, in that order, 40 µM and 30 µM.
In the same order, the values of “N-{N-[O-(α-D-Mannopyranosyl)-4-hydroxy-phenylamino-thiocarbonyl]-lysy l-D-alanyl}-batracyline [Example 4.11]” are 15 µM and 15 µM.
Consider “N-{N^α -[-(3-O-Carbamoylmethyl-β-D-galactopyranosyl)-4-hydroxy-phenylamino-t hiocarbonyl]-lysyl-D-alanyl}-batracyline [Example 4.10]”, for which the IC50 in assay [1] and in assay [2] was 30 µM throughout.
On to “N-{N^α -[-(3-O-Carboxymethyl-β-D-galactopyranosyl)-4-hydroxy-phenylaminothio carbonyl]-N^ε -[O-(3,4-di-O-methyl-β-D-galactopyranosyl)-4-hydroxy-phenylamino-thio carbonyl]-lysyl-D-alanyl}-batracyline, sodium salt [Example 5.13]”, for which the 50% inhibitory concentration (IC50) in assay [1] is 20 µM; in assay [2] it was 40 µM.
The compound “N-{N^α,N^ε -Bis-[O-(3,4-O-dideoxy-β-D-galactopyranosyl)-4-hydroxy-phenylamino-th iocarbonyl]-lysyl-D-alanyl}-batracyline [Example 6.83]” came in with an IC50 in assay [1] of 90 µM. That is a double-digit micromolar value.
The same measure, in the same setting: then “N-{N^α,N^ε -Bis-[O-(3,4-di-O-methyl-β-D-galactopyranosyl)-4-hydroxy-phenylamino- thiocarbonyl]-lysyl-alanyl}-batracyline [Example 6.85]”, with 22 µM; and “N-{N^α,N^ε -Bis-[O-(3-O-carbamoylmethyl-β-D-galactopyranosyl)-4-hydroxy-phenylam ino-thiocarbonyl]-lysyl-seryl}-batracyline [Example 6.35]”, with 20 µM.
On the same count and under the same terms, to “N-{N^α,N^ε -Bis-[O-(3-O-carboxymethyl-β-D-galactopyranosyl)-4-hydroxy-phenylamin o-thiocarbonyl]-lysyl-seryl}-batracyline, di-sodium salt [Example 6.34]” belongs 50 µM; to “N-{N^α,N^ε -Bis-[O-(3-O-carboxymethyl-β-L-fucosyl)-4-hydroxy-phenylamino-thiocar bonyl]-lysyl-diaminopropionyl}-batracyline, di-sodium salt [Example 6.21]”, 150 µM; to “N-{N^α,N^ε -Bis-[O-(3-O-methyl-β-L-fucosyl)-4-hydroxy-phenylamino-thiocarbonyl]- lysyl-diaminopropionyl}-batracyline [Example 6.20]”, 80 µM.
Same read-out and setting: to “N-{N^ε -[4-Hydroxyethylamino-2-[O-(2-O-methyl-β-L-fucosyl)-4-hydroxy-phenyla mino]-triazin-6-yl]-lysyl-alanyl}-batracyline, trifluoroacetate [Example 8.11]” belongs 45 µM.
The compound “N-{N^ε -[-(3-O-Carbamoylmethyl-β-D-galactopyranosyl)-4-hydroxy-phenylamino-t hiocarbonyl]-lysyl-D-alanyl}-batracyline, trifluoroacetate [Example 3.19]” registered an IC50 in assay [1] of 75 µM. Compared with the last compound, the IC50 is about 1.7-fold higher.
Take “N-{N^ε -[O-(3-O-(N-Propyl-carbamoylmethyl)-β-D-galactopyranosyl)-4-hydroxy-p henylamino-thiocarbonyl]-lysyl-D-alanyl}-batracyline, trifluoroacetate [Example 3.21]”: the IC50 in assay [1] was determined as 90 µM.
“N-{N^ε -[O-(3-O-Carbamoylmethyl-α-D-mannopyranosyl)-4-hydroxy-phenylamino-t hiocarbonyl]-lysyl-D-alanyl}-batracyline, trifluoroacetate [Example 3.30]”: the IC50 in assay [1] was over 250 µM.
In the case of “N-{N^ε -[O-(3-O-Carboxymethyl-α-D-mannopyranosyl)-4-hydroxy-phenylamino-thi ocarbonyl]-lysyl-D-alanyl}-batracyline, trifluoroacetate [Example 3.29]”, the IC50 in assay [1] came to 110 µM.
“N-{N^ε -[O-(3-O-Carboxymethyl-β-D-galactopyranosyl)-4-hydroxy-phenylamino-th iocarbonyl]-lysyl-D-alanyl}-batracyline, trifluoroacetate [Example 3.18]”: the IC50 in assay [1] amounted to 15 µM. Against the preceding compound, the IC50 is about 7.3-fold lower.
Regarding “N-{N^ε -[O-(3-O-Methoxycarbonylmethyl-α-D-mannopyranosyl)-4-hydroxy-phenyla mino-thiocarbonyl]-lysyl-D-alanyl}-batracyline, trifluoroacetate [Example 3.28]”, in assay [1], the IC50 was determined as 60 µM.
Consider “N-{N^ε -[O-(3-O-Methyl-β-D-galactopyranosyl)-4-hydroxy-phenylamino-thiocarbo nyl]-lysyl-D-alanyl}-batracyline, trifluoroacetate [Example 3.14]”, for which, in assay [1], half-maximal inhibition (IC50) required 40 µM.
Same read-out and setting: to “N-{N^ε [O-(3-O-Methyl-α-D-mannopyranosyl)-4-hydroxy-phenylamino-thiocarbony l]-lysyl-D-alanyl}-batracyline, trifluoroacetate [Example 3.26]” belongs 50 µM; to “N-{N^ε-[O-( 3,4-Dideoxy-β-D-galactopyranosyl)-4-hydroxy-phenylamino-thiocarbonyl] -lysyl-D-alanyl}-batracyline, trifluoroacetate [Example 3.23]”, 50 µM.

The values above are taken from patent publication US6271342A, “Sugar-modified cytostatics” (Bayer Aktiengesellschaft, priority 1995, dated 2001).
